Data reported in patent US20260034094A1, “COMPOSITIONS AND METHODS FOR INDUCING FERROPTOSIS” (Kojin Therapeutics, Inc., priority 2022, published 2026).
Where “and” joins values, the source holds several entries; their conditions need not be identical. Equal values may be shown once. Read-outs that look alike come from different tables or passages of the source.

Tests used:
RKN cells = assay: RKN cell profiling assay (cell viability, CellTiter-Glo); assay type: cell-based; settings: read-out: Cell Killing EC50
Outline: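 Cells seeded at 1,000/well in F-12 with 10% FBS, left to adhere 24 h, then compound-treated for 96 h at 0.5% final DMSO. Viability by CellTiter-Glo luminescence; EC50 from four-parameter logistic fit. Ferroptosis rescue runs included 1.5 μM ferrostatin-1 added at seeding.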

human recombinant GCL = human recombinant GCL (Homo sapiens (Human), UniProt P48506); assay: GCL enzyme profiling assay (ADP-Glo luminescence); assay type: biochemical
Chain of human recombinant GCL (P48506 whole entry): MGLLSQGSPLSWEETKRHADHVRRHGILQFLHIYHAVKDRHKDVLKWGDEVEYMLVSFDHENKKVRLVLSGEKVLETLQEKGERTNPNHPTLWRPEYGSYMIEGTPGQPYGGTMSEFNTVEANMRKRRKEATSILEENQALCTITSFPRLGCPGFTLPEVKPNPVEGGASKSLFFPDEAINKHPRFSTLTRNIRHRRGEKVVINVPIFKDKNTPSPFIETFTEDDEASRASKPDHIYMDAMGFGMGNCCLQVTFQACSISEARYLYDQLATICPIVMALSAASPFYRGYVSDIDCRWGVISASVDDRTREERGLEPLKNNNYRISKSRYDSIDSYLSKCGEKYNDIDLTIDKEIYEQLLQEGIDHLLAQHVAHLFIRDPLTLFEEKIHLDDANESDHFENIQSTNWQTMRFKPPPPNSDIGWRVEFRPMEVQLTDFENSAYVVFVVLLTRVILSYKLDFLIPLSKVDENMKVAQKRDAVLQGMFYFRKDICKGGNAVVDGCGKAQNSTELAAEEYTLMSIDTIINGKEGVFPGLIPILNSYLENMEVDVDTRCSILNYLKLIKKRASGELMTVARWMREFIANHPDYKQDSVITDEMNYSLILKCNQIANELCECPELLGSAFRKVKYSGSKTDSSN
Outline: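 ADP-Glo luminescence readout; 5 nM enzyme preincubated 1 h at 22 °C with 0.6 mM ATP, then started with 1 mM glutamate and 1.2 mM α-aminobutyrate, stopped after 2 h. Buffer: HEPES pH 7.5, MgCl2, DTT, BSA, 0.2% F-127, 1% DMSO. IC50 from four-parameter logistic fit.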

[1] = human recombinant GCL, ADP-Glo, read-out: GCL IC50
[2] = human recombinant GCL 5 nM, 1 h preincubation with ATP, read-out: GCL IC50
[3] = human recombinant GCL 5 nM, 1 h preincubation with ATP, read-out: GCL IC50 (mM), individual values in parentheses

| SMILES | EC50 (RKN cells; cell viability) [mM] | IC50 (human recombinant GCL; [1]) [mM] | EC50 (RKN cells; 96 h, 96 h exposure) [mM] | IC50 (human recombinant GCL; [2]) | IC50 (human recombinant GCL; [3]) |
| --- | --- | --- | --- | --- | --- |
| N=S(=O)(CCC(n1nccn1)C(F)(F)F)CC[C@H](N)C(=O)O (stereo partly drawn) [Compound 404, (2S)-2-amino-4-[[4,4,4-trifluoro-3-(triazol-2-yl)butyl]sulfonimidoyl]butanoic acid] | < 1 | 0.02 to 2 |  |  |  |
| N=S(=O)(CC[C@H](N)C(=O)O)CCC(O)(c1ccc(-c2ccc3ccc(=O)oc3c2)cc1)C(F)(F)F (stereo partly drawn) [Compound 425, (2S)-2-amino-4-(4,4,4-trifluoro-3-hydroxy-3-(4-(2-oxo-2H-chromen-7-yl)phenyl)butylsulfonimidoyl)butanoic acid] | ≥ 1 | ≤ 0.02 |  |  |  |
| N=S(=O)(CCC(C1CCCC1)C(F)(F)F)CC[C@H](N)C(=O)O (some centres unmarked) [Compound 382] | ≥ 1 | ≤ 0.02 |  |  |  |
| N=S(=O)(CC[C@H](N)C(=O)O)CCC(O)(c1ccc(-c2ccc(F)cc2F)cn1)C(F)(F)F (some centres unmarked) [Compound 477] | < 1 | ≤ 0.02 |  |  |  |
| CC(C)(C)CCS1(=O)=NC(=O)[C@@H](N)CC1 (stereo partly drawn) [Compound 201, (1S,4R)-4-amino-1-(3,3-dimethylbutyl)-5,6-dihydro-1,2-thiazin-3 (4H)-one 1-oxide] |  |  | < 1 | 0.02 to 2 mM |  |
| N[C@@H](CCS(=O)(=O)CCC(O)(c1cc2ccccc2cn1)C(F)(F)F)C(=O)O (stereo partly drawn) [Compound 332, (2S)-2-amino-4-((4,4,4-trifluoro-3-hydroxy-3-(isoquinolin-3-yl)butyl)sulfonyl)butanoic acid] | ≥ 1 | 0.02 to 2 |  |  |  |
| C[C@@](O)(CCS(=N)(=O)CC[C@H](N)C(=O)O)C(F)(F)F (single isomer, unassigned) [Compound 323] | ≥ 1 | > 2 |  |  |  |
| N=S(=O)(CC[C@H](N)C(=O)O)CCC(O)(c1nc2ccccc2[nH]1)C(F)(F)F (some centres unmarked) [Compound 343] | < 1 | 0.02 to 2 |  |  |  |
| N=S(=O)(CC[C@H](N)C(=O)O)CCC1(n2nccn2)CCC1 (stereo partly drawn) [Compound 405, (2S)-4-(2-(1-(2H-1,2,3-triazol-2-yl)cyclobutyl)ethylsulfonimidoyl)-2-aminobutanoic acid] | < 1 | 0.02 to 2 |  |  |  |
| Cc1c(F)cccc1CCS(=N)(=O)CC[C@H](N)C(=O)O (some centres unmarked) [Compound 26] |  |  | < 1 | ≤ 0.02 mM |  |
| N=S(=O)(CC[C@H](N)C(=O)O)CCC1(c2cccc(F)c2)CCC1 (stereo partly drawn) [Compound 385, (2S)-2-amino-4-[2-[1-(3-fluorophenyl)cyclobutyl]ethylsulfonimidoyl]butanoic acid] | < 1 | 0.02 to 2 |  |  |  |
| CC(C)(CCS(=N)(=O)CC[C@H](N)C(=O)O)n1ncc(-c2ccccc2)n1 (stereo partly drawn) [Compound 208, (2S)-2-amino-4-(3-methyl-3-(4-phenyl-2H-1,2,3-triazol-2-yl)butylsulfonimidoyl)butanoic acid] |  |  | < 1 | ≤ 0.02 mM and 0.02 to 2 mM | 0.0204 mM and 0.02 mM |
| N=S(=O)(CCC1CCOCC1)CC[C@H](N)C(=O)O (some centres unmarked) [Compound 157] |  |  | ≥ 1 | 0.02 to 2 mM |  |
| C[C@](O)(CCS(=N)(=O)CC[C@H](N)C(=O)O)C(F)(F)F (single isomer, unassigned) [Compound 324] | < 1 | ≤ 0.02 |  |  |  |
| N=S(=O)(CC[C@H](N)C(=O)O)CCC1(CO)CCC1 (some centres unmarked) [Compound 182] |  |  | < 1 | 0.02 to 2 mM |  |
| N=S(=O)(CC[C@H](N)C(=O)O)CCC(O)(C(F)(F)F)C12CC(C1)C2 (some centres unmarked) [Compound 359] | ≥ 1 | 0.02 to 2 |  |  |  |
| N=S(=O)(CC[C@H](N)C(=O)O)CCC(O)(c1nsc2ccccc12)C(F)(F)F (some centres unmarked) [Compound 375] | < 1 | ≤ 0.02 |  |  |  |
| N=S(=O)(CC[C@H](N)C(=O)O)CCC(O)(c1cc(-c2ccccc2)sn1)C(F)(F)F (some centres unmarked) [Compound 376] | < 1 | ≤ 0.02 |  |  |  |
| N=S(=O)(CCc1ccncc1)CC[C@H](N)C(=O)O (some centres unmarked) [Compound 6] |  |  | ≥ 1 | > 2 mM and 0.02 to 2 mM | 2.27 mM and > 1.62 mM |
| CC(C)(CCS(=N)(=O)CC[C@H](N)C(=O)O)c1cnoc1 (some centres unmarked) [Compound 63] |  |  | ≥ 1 | 0.02 to 2 mM |  |
| N=S(=O)(CC[C@H](N)C(=O)O)C[C@H](O)c1ccccc1 (some centres unmarked) [Compound 46] |  |  | ≥ 1 | 0.02 to 2 mM |  |
| Cc1cnn(C2(CCS(=N)(=O)CC[C@H](N)C(=O)O)CCC2)n1 (some centres unmarked) [Compound 417] | < 1 | 0.02 to 2 |  |  |  |
| CC(C)(C)CCS(=N)(=O)CC[C@H](N)C(=O)Nc1ccncc1 (some centres unmarked) [Compound 127] |  |  | < 1 | > 2 mM |  |

| SMILES | EC50 (RKN cells; cell viability) [mM] | IC50 (human recombinant GCL; [1]) [mM] | EC50 (RKN cells; 96 h, 96 h exposure) [mM] | IC50 (human recombinant GCL; [2]) | IC50 (human recombinant GCL; [3]) |
| --- | --- | --- | --- | --- | --- |
| N=S(=O)(CC[C@H](N)C(=O)O)CCC1(n2ncc(-c3cccnc3)n2)CCC1 (some centres unmarked) [Compound 419] | ≥ 1 | 0.02 to 2 |  |  |  |
| N=S(=O)(CCc1nc(-c2ccccc2)cs1)CC[C@H](N)C(=O)O (some centres unmarked) [Compound 17] |  |  | ≥ 1 | 0.02 to 2 mM |  |
| N=S(=O)(CC[C@H](N)C(=O)O)CCC(O)(c1ccc(C(F)(F)F)cc1)C(F)(F)F (some centres unmarked) [Compound 338] | ≥ 1 | ≤ 0.02 |  |  |  |
| N=[S@SP2](=O)(CCC(N)C(=O)O)CCC(c1ccccc1)(C(F)(F)F)C(F)(F)F (centres unmarked) [compound 508] | ≥ 1 | 0.02 to 2 |  |  |  |
| N=S(=O)(CC[C@H](N)C(=O)O)CC[C@H](O)C(F)(F)F (single isomer, unassigned) [Compound 326] | < 1 | ≤ 0.02 |  |  |  |
| N=S(=O)(CC[C@H](N)C(=O)O)CCC(O)(C1[C@@H](c2ccccc2)[C@H]1c1ccccc1)C(F)(F)F (some centres unmarked) [compound 503] | ≥ 1 | 0.02 to 2 |  |  |  |
| COC(CC[S@@](=N)(=O)CC[C@H](N)C(=O)O)C(F)(F)F (some centres unmarked) [Compound 176] |  |  | ≥ 1 | > 2 mM |  |
| N[C@@H](CCS(=O)(=O)CCC(O)C(F)(F)F)C(=O)O (some centres unmarked) [compound 516] | ≥ 1 | > 2 |  |  |  |
| N=S(=O)(CC[C@H](N)C(=O)O)CCC(O)(c1ccc(-c2ccc(Cl)cc2Cl)cc1F)C(F)(F)F (some centres unmarked) [Compound 450] | < 1 | ≤ 0.02 |  |  |  |
| N=S(=O)(CCc1cccc2c1OC(F)(F)O2)CC[C@H](N)C(=O)O (some centres unmarked) [Compound 18] |  |  | ≥ 1 | 0.02 to 2 mM |  |
| N=S(=O)(CC[C@H](N)C(=O)O)CCC1(O)CCCCC1 (some centres unmarked) [Compound 297] | ≥ 1 | 0.02 to 2 |  |  |  |
| CCCC(C)(C)OC(=O)[C@@H](N)CCS(=N)(=O)CCC(C)(C)C (some centres unmarked) [Compound 99] |  |  | < 1 | > 2 mM |  |
| N=S(=O)(CC[C@H](N)C(=O)O)CCC(O)(c1ccc(C2CCCC2)cn1)C(F)(F)F (stereo partly drawn) [Compound 461, (2S)-2-amino-4-(3-(5-cyclopentylpyridin-2-yl)-4,4,4-trifluoro-3-hydroxybutylsulfonimidoyl)butanoic acid] | < 1 | ≤ 0.02 |  |  |  |
| N=S(=O)(CCC(c1ccccc1)C(F)(F)F)CC[C@H](N)C(=O)O (some centres unmarked) [Compound 53] |  |  | < 1 | 0.02 to 2 mM |  |
| COCCS(=N)(=O)CC[C@H](N)C(=O)O (some centres unmarked) [Compound 164] |  |  | ≥ 1 | 0.02 to 2 mM |  |
| CCCCS(=N)(=O)CC[C@H](N)C#N (stereo partly drawn) [Compound 199, (2S)-2-amino-4-(butylsulfonimidoyl)butanenitrile] |  |  | ≥ 1 | > 2 mM |  |
| N=S(=O)(CCC(c1ccc(-c2cccc(N)c2)cc1)C(F)(F)F)CC[C@H](N)C(=O)O (some centres unmarked) [Compound 239] | ≥ 1 | ≤ 0.02 |  |  |  |
| N=S(=O)(CCC(n1ncc(-c2cccnc2)n1)C(F)(F)F)CC[C@H](N)C(=O)O (some centres unmarked) [Compound 408] | ≥ 1 | ≤ 0.02 |  |  |  |
| N=S(=O)(CCC(O)C(F)(F)F)CC[C@H](N)C(=O)O (stereo partly drawn) [Compound 154, (2S)-2-amino-4-(4,4,4-trifluoro-3-hydroxybutylsulfonimidoyl)butanoic acid] |  |  | < 1 | ≤ 0.02 mM |  |
| CC(C)(C)CCS(=N)(=O)CC[C@H](N)C(=O)Nc1ccccn1 (some centres unmarked) [Compound 128] |  |  | < 1 | 0.02 to 2 mM |  |
| N[C@H]1CCS(=O)(CCCC(F)(F)F)=NC1=O (stereo partly drawn) [Compound 202, (1S,4R)-4-amino-1-(4,4,4-trifluorobutyl)-5,6-dihydro-1,2-thiazin-3 (4H)-one 1-oxide] |  |  | < 1 | 0.02 to 2 mM |  |
| N=S(=O)(CC[C@H](N)C(=O)O)CCC(O)(c1ccc(Cc2ccc(Cl)cc2Cl)cc1)C(F)(F)F (some centres unmarked) [Compound 457] | ≥ 1 | ≤ 0.02 |  |  |  |
